Experimental data reported in publication PMC5847527, “Identification of a novel 2-oxindole fluorinated derivative as in vivo antitumor agent for prostate cancer acting via AMPK activation” (Scientific Reports, 2018).

Legend:
[1] = target: T1, human recombinant AMPK isoform α1β1γ1 (Homo sapiens, UniProt P54619+Q13131+Q9Y478); test: In vitro AMPK enzymatic assay (AMARA peptide, Delfia), α1β1γ1; type: biochemical; settings: 30 μM, p < 0.001
T1 construct: purchased Invitrogen
Experimental: This assay evaluated the ability of the compound to activate AMPK and in turn phosphorylate the synthetic substrate peptide [sequence].
Data are the mean ± S.D. of four experiments. **p < 0.01 and ***p < 0.001 compared by the Student’s t-test.
The effect of compounds in the in vitro human recombinant AMPK activity assay was measured by monitoring phosphorylation of the “AMARA” peptide using Delfia technology. […] Final concentration of DMSO was 1%. Reactions were initiated by the addition of AMPK (0.1U). Following mixing, the plates were incubated for 30 min at room temperature. Enzyme activity was assayed by using an anti-phospho-serine antibody to measure the quantity of phosphate incorporated into the AMARAA peptide.

[2] = tested on: PC-3 xenograft tumors; test: PC-3 xenograft tumor growth in nude mice; type: in vivo; settings: 5 mg/Kg daily, 15 days
From the text: To validate the therapeutic value of the compound 8c against castration-resistant prostate cancer a murine xenograft model was employed. Due to the potent effect of compound 8c on the aggressive PC-3 cell line and in order to avoid unnecessary wasting of animals according to the 3 Rs guidelines (reduction, replacement, refinement) for the use of animals in research, we only use PC-3 cells for the in vivo studies. PC-3 tumors were induced in nude mice by subcutaneous injection of cells in the right flank of the mouse. When tumors reached a 70 mm^3 volume, mice were daily treated with 5 mg/Kg of compound 8c. In vehicle-treated mice, an increase in tumor growth volume was observed during the course of the study and at the end of experimentation (Fig. 8A).
Figure 8 Inhibition of prostate tumor xenograft growth in vivo by compound 8c. […]
Male immunodeficient nude-Foxn1 (nu/nu) mice (Envigo RMS, Barcelona, Spain), 4 to 6 week old, were used for all xenograft studies. […] Tumors were measured with external calipers and volume was calculated by the modified ellipsoidal formula as volume = length × (width)^2 × 0.52 mm^3 [52],[53]. At the end of the study, the mice were sacrificed by placing them in a CO2 gas-filled chamber, and the excised tumors were recovered and homogenized in lysis buffer for protein quantification and Western blotting.

[3] = tested on: AMPK; test: Characterization of AMPK activation by Western blot in PC-3 and LNCaP cells (Dorsomorphin, siRNA); type: cell-based, human
Experimental: To further confirm the compound 8c-induced activation of AMPK, PC-3 and LNCaP cells were incubated with the compound for 1 h and 24 hours in the presence of the AMPK inhibitor Dorsomorphin. […] Accordingly, ACC phosphorylation was increased at 1 h and 24 h and prevented by Dorsomorphin in both cell lines. AMPK inhibits mTORC1 through phosphorylation of Raptor on two well-conserved serine residues (ser722 and ser792) inducing cell-cycle arrest in response to an energy stress. To further support the 8c-induced AMPK activation, we determined Raptor phosphorylation on Ser792 in prostate cells.
Figure 5 AMPK activation by compound 8c in prostate cancer cells. (A) PC-3 and LNCaP cells were treated with vehicle, 25 µM compound 8c, 25 µM compound 8c + 5 μM Dorsomorphin (8c + D) or 5 μM Dorsomorphin (D), for 1 hour or 24 hours and levels of the phosphorylated AMPK (pAMPK), phosphorylated ACC (pACC), phosphorylated Raptor (pRaptor) forms and HIF1α were determined by Western blot. Upper panel, representative Western blot of three different experiments. β-tubulin (β-Tub) serves as a loading control. Lower panel, densitometric analyses of bands represented as the mean of the ratio pAMPK/AMPK or pACC/ACC. (B) Cell viability monitored by MTT assay in PC-3 and LNCaP cells treated with vehicle, 25 µM and 50 μM compound 8c alone or in the presence of 5 μM Dorsomorphin or transfected with control siRNA (siC) or α1AMPK-selective siRNA (siAMPK). (C) LNCaP cells were treated with vehicle, 25 µM compound 8c, 25 µM compound 8c + 5 μM Dorsomorphin (8c + D) or 5 μM Dorsomorphin (D), for 24 hours and levels of Androgen Receptor (AR), Prostate specific antigen (PSA) and Prostate specific membrane antigen (PSMA) were determined by Western blot.Values were normalized with the control and represent the mean ± SD of at least three independent experiments. *p < 0.05 and **p < 0.01 compared to control and ^#p < 0.05 and ^##p < 0.01 compared with 8c-treated group by the Student’s t-test.
AMPK is a heterotrimeric protein composed by catalytic (α) and regulatory (β and γ) subunits. In mammals, different isoforms of α, β and γ subunits can associate to produce up to 12 AMPK different combinations. […]
Figure 6 Phosphorylation of AMPK and ACC in prostate cells transfected with selective AMPKα1 or AMPKα2 siRNA. […] Levels of the phosphorylated AMPK (pAMPK), phosphorylated ACC (pACC) and their total forms were determined by Western blot. […]
Cells were lysed in Lysis buffer (50 mM Tris pH 7.4, 0.8 M NaCl, 5 mM MgCl2, 0.1% Triton X-100) containing Protease Inhibitor and Phosphatase inhibitor Cocktails (Roche, Basel, Switzerland). Protein concentrations were measured by BioRad™ protein assay kit (Richmond, CA, USA). […]

T1 sequence (Q13131 whole entry, canonical isoform): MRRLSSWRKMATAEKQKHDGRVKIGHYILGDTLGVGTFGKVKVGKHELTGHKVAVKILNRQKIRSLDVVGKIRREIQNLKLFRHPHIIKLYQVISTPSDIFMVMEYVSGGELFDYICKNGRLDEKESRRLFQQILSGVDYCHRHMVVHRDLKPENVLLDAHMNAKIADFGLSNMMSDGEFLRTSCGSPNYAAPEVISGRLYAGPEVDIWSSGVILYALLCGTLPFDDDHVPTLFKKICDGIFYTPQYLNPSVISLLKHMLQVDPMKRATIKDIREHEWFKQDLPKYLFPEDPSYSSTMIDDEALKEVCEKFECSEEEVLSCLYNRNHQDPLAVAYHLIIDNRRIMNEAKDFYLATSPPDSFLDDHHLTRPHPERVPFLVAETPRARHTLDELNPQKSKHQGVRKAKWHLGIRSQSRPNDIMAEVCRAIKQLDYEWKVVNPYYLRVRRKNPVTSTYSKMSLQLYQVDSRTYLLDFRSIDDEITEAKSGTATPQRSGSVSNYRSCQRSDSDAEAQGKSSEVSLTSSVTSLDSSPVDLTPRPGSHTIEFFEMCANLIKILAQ
T1 sequence (Q9Y478 whole entry, canonical isoform): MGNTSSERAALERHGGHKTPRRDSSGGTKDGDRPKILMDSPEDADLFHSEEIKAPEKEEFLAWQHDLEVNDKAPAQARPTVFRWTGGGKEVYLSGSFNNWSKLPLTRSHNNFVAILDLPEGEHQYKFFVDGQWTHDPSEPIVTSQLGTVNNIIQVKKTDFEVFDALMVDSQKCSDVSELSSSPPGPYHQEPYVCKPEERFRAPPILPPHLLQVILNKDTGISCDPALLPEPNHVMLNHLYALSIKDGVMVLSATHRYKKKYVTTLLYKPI
T1 sequence (P54619 whole entry, canonical isoform): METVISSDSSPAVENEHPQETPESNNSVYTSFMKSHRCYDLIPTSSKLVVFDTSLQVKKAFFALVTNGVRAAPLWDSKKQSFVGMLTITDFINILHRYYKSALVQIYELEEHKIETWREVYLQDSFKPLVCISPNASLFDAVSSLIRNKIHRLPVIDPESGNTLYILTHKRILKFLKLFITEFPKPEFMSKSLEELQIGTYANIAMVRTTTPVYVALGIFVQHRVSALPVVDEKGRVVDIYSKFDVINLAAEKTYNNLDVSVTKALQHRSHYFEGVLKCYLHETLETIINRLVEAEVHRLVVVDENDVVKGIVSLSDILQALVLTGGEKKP

O=C1Nc2ccccc2C1(F)Cc1ccc(-c2ccccc2)o1 (stereo not drawn) [Compound 8c, 3-fluoro-3-((5-phenylfuran-2-yl)methyl)indolin-2-one]
increase of AMPK α1β1γ1 activity [1]: 75% | AMPK activation, ACC phosphorylation, Cyclin D1 and procaspase-3 levels in xenograft tumors ([2]; Western blot of tumors): promoted AMPK activation, increased ACC phosphorylation, decreased Cyclin D1 and decreased procaspase-3 levels | xenograft tumor growth ([2]; subcutaneously, nude mice, vs vehicle): significantly reduced tumor growth | activation of AMPK at 24 hours ([3]; PC-3 and LNCaP cells, 25 µM, 24 hours vs 1 hour): also seen at 24 hours, being even more robust that at 1 hour of treatment | 8c-induced AMPK phosphorylation with AMPKα1 subunit knocked down ([3]; siRNA AMPKα1, 25 μM, 1 h): almost totally blocked | AMPK and ACC phosphorylation with AMPKα2 subunit silenced ([3]; siRNA AMPKα2, 25 μM, 1 h): still was able to phosphorylate AMPK and ACC at a similar level than in non-silenced (siC) cells
